Like-named read-outs stand apart in the source and are kept apart here.
Columns and labels:
Type in all cases: cell-based
[1] = system: Escherichia coli M-17; assay: Sensitivity of strains: suppression of growth; conditions: Compound (1) 1.0%; antibiotics disc method
[2] = system: Enterobacter aerogenes B-687; assay: Sensitivity of strains: suppression of growth; conditions: Compound (1) 1.0%; antibiotics disc method
[3] = system: Enterobacter aerogenes B-679; assay: Sensitivity of strains: suppression of growth; conditions: Compound (1) 1.0%; antibiotics disc method
[4] = system: Conditional pathogenic enterobacteria gram-negative aerobic bacilli; also: key: + sensitive strains; + moderately sensitive strains; − stable strains
[5] = system: Yersinia pseudotuberculosis; conditions: Compound (1) 1.0%; antibiotics disc method
[6] = system: Bacillus sp. B-575; assay: Sensitivity of strains: suppression of growth; also: key: + sensitive strains; + moderately sensitive strains; − stable strains
[7] = system: Alkaligenes sp. B-689; assay: Sensitivity of strains: suppression of growth; conditions: Compound (1) 1.0%; antibiotics disc method
[8] = system: Staphylococcus aureus B-685; assay: Sensitivity of strains: suppression of growth; conditions: Compound (1) 1.0%; antibiotics disc method
[9] = system: Neisseria meningitidis M-6231; assay: Sensitivity of strains: suppression of growth; conditions: Compound (1) 1.0%; antibiotics disc method
[10] = system: β-hemolytic streptococcus B-624; assay: Sensitivity of strains: suppression of growth; conditions: Compound (1) 1.0%; antibiotics disc method
[11] = system: Staphylococcus aureus B-674; assay: Sensitivity of strains: suppression of growth; conditions: Compound (1) 1.0%; antibiotics disc method
[12] = system: Citrobacter diversus B-678; assay: Sensitivity of strains: suppression of growth; conditions: Compound (1) 1.0%; antibiotics disc method
[13] = system: Staphylococcus aureus M-12159; assay: Sensitivity of strains: suppression of growth; conditions: Compound (1) 1.0%; antibiotics disc method
[14] = system: Neisseria meningitidis M-A72; assay: Sensitivity of strains: suppression of growth; conditions: Compound (1) 1.0%; antibiotics disc method
[15] = system: Salmonella typhimurium M-727; assay: Sensitivity of strains: suppression of growth; conditions: Compound (1) 1.0%; antibiotics disc method
[16] = system: Klebsiella pneumoniae M-248; assay: Sensitivity of strains: suppression of growth; conditions: Compound (1) 1.0%; antibiotics disc method
[17] = system: γ-hemolytic streptococcus B-672; assay: Sensitivity of strains: suppression of growth; conditions: Compound (1) 1.0%; antibiotics disc method
[18] = system: Staphylococci epidermidis D-513; assay: Sensitivity of strains: suppression of growth; conditions: Compound (1) 1.0%; antibiotics disc method
[19] = system: Staphylococcus aureus M-209; assay: Sensitivity of strains: suppression of growth; conditions: Compound (1) 1.0%; antibiotics disc method
[20] = system: Alkaligenes sp. B-667; assay: Sensitivity of strains: suppression of growth; conditions: Compound (1) 1.0%; antibiotics disc method
[21] = system: Acinetobacter B-677; assay: Sensitivity of strains: suppression of growth; conditions: Compound (1) 1.0%; antibiotics disc method
[22] = system: Staphylococcus epidermidis BK-30; assay: Sensitivity of strains: suppression of growth; conditions: Compound (1) 1.0%; antibiotics disc method
[23] = system: Acinetobacter B-681; assay: Sensitivity of strains: suppression of growth; conditions: Compound (1) 1.0%; antibiotics disc method
[24] = system: Escherichia coli B-683; assay: Sensitivity of strains: suppression of growth; conditions: Compound (1) 1.0%; antibiotics disc method
[25] = system: Klebsiella pneumoniae M-A21; assay: Sensitivity of strains: suppression of growth; conditions: Compound (1) 1.0%; antibiotics disc method
[26] = system: Acinetobacter B-676; assay: Sensitivity of strains: suppression of growth; conditions: Compound (1) 1.0%; antibiotics disc method
[27] = system: Escherichia coli B-65; assay: Sensitivity of strains: suppression of growth; conditions: Compound (1) 1.0%; antibiotics disc method
[28] = system: Pseudomonas aeruginosa B-601; assay: Sensitivity of strains: suppression of growth; conditions: Compound (1) 1.0%; antibiotics disc method
[29] = system: Corynebacterium diphtheriae B-670; assay: Sensitivity of strains: suppression of growth; conditions: Compound (1) 1.0%; antibiotics disc method
[30] = system: Shigella flexneri M-2A6907; assay: Sensitivity of strains: suppression of growth; conditions: Compound (1) 1.0%; antibiotics disc method
[31] = system: Salmonella paratyphi M-16469; assay: Sensitivity of strains: suppression of growth; conditions: Compound (1) 1.0%; antibiotics disc method
[32] = system: Shigella sonnei B-720; assay: Sensitivity of strains: suppression of growth; conditions: Compound (1) 1.0%; antibiotics disc method

Compound | Suppression of Growth (+/−) [1] | Suppression of Growth (+/−) [2] | Suppression of Growth (+/−) [3] | Suppression of Growth (+/−) [5] | Suppression of Growth (+/−) [7] | Suppression of Growth (+/−) [8] | Suppression of Growth (+/−) [9] | Suppression of Growth (+/−) [10] | Suppression of Growth (+/−) [11] | Suppression of Growth (+/−) [13] | Suppression of Growth (+/−) [14] | Suppression of Growth (+/−) [16] | Suppression of Growth (+/−) [17] | Suppression of Growth (+/−) [18] | Suppression of Growth (+/−) [19] | Suppression of Growth (+/−) [20] | Suppression of Growth (+/−) [22] | Suppression of Growth (+/−) [23] | Suppression of Growth (+/−) [24] | Suppression of Growth (+/−) [25] | also measured
CC1(C)S[C@@H]2[C@H](NC(=O)[C@H](N)c3ccccc3)C(=O)N2[C@H]1C(=O)O [Antibiotic 2, ampicillin] | + | − | − | − | − | − | − | + | − | − | − | − | + | + | − | − | + | − | + | − | Suppression of Growth (+/−) [4]: −; Suppression of Growth (+/−) [6]: −; Suppression of Growth (+/−) [12]: +; Suppression of Growth (+/−) [15]: −; Suppression of Growth (+/−) [21]: −; Suppression of Growth (+/−) [26]: −; Suppression of Growth (+/−) [27]: +; Suppression of Growth (+/−) [28]: +
CC1(C)S[C@@H]2[C@H](NC(=O)C(C(=O)O)c3ccccc3)C(=O)N2[C@H]1C(=O)O (stereo partly drawn) [Antibiotic 4, carbenicillin] | + | − | − | − | − | + | − | + | − | + | − | − | − | + | + | − | + | − | + | − | Suppression of Growth (+/−) [4]: −; Suppression of Growth (+/−) ([6]; Compound (1) 1.0%, antibiotics disc method): −; Suppression of Growth (+/−) [12]: −; Suppression of Growth (+/−) [21]: −; Suppression of Growth (+/−) [26]: −; Suppression of Growth (+/−) [27]: +; Suppression of Growth (+/−) [29]: −; Suppression of Growth (+/−) [28]: +
NC[C@H]1O[C@H](O[C@H]2[C@H](O)[C@@H](O[C@H]3O[C@H](CO)[C@@H](O)[C@H](N)[C@H]3O)[C@H](N)C[C@@H]2N)[C@H](O)[C@@H](O)[C@@H]1O [Antibiotic 5, kanamycin] | + | − | − | − | + | + | − | − | − | + | − | − | − | − | + | − | − | − | + | − | Suppression of Growth (+/−) [4]: −; Suppression of Growth (+/−) [12]: +; Suppression of Growth (+/−) [21]: −; Suppression of Growth (+/−) [26]: −; Suppression of Growth (+/−) [27]: +; Suppression of Growth (+/−) [29]: −; Suppression of Growth (+/−) [28]: +
O=C(N[C@H](CO)[C@H](O)c1ccc([N+](=O)[O-])cc1)C(Cl)Cl [Antibiotic 7, levomicethin] | + | − | − | − | + | − | − | − | + | − | − | − | − | − | − | − | − | − | + | − | Suppression of Growth (+/−) [4]: −; Suppression of Growth (+/−) [6]: +; Suppression of Growth (+/−) [12]: −; Suppression of Growth (+/−) [15]: −; Suppression of Growth (+/−) [21]: −; Suppression of Growth (+/−) [26]: −; Suppression of Growth (+/−) [27]: +; Suppression of Growth (+/−) [30]: +; Suppression of Growth (+/−) [28]: +
CN(C)[C@@H]1C(=O)C(C(N)=O)=C(O)[C@@]2(O)C(=O)C3=C(O)c4c(O)cccc4[C@@](C)(O)[C@H]3C[C@@H]12 [Antibiotic 13, tetracycline] | + | − | − | − | − | − | − | − | + | − | − | − | − | − | − | − | − | − | + | − | Suppression of Growth (+/−) [6]: +; Suppression of Growth (+/−) [21]: −; Suppression of Growth (+/−) [26]: −; Suppression of Growth (+/−) [27]: +; Suppression of Growth (+/−) [29]: +; Suppression of Growth (+/−) [28]: +
polymixin [Antibiotic 9] | + | + | + | − | − | − | − | − | − | − | − | − | − | − | + | + | − | − | + | − | Suppression of Growth (+/−) [4]: −; Suppression of Growth (+/−) [6]: −; Suppression of Growth (+/−) [21]: −; Suppression of Growth (+/−) [26]: −; Suppression of Growth (+/−) [27]: +; Suppression of Growth (+/−) [31]: −; Suppression of Growth (+/−) [29]: −; Suppression of Growth (+/−) [28]: +
ristomycin [Antibiotic 11] | − | − | − | − | − | + | − | + | − | + | − | − | + | + | + | − | + | − | − | − | Suppression of Growth (+/−) [12]: −; Suppression of Growth (+/−) [15]: −; Suppression of Growth (+/−) [26]: −; Suppression of Growth (+/−) [32]: −; Suppression of Growth (+/−) [27]: +; Suppression of Growth (+/−) [30]: −; Suppression of Growth (+/−) [31]: −; Suppression of Growth (+/−) [29]: +; Suppression of Growth (+/−) [28]: −
